The source of these data is ChEMBL document CHEMBL1127246, “1,2,5,6-tetrahydropyridine oxime ethers incorporating electron withdrawing groups are potent and selective muscarinic agonists” (Bioorg Med Chem Lett, 1994).

Data set [1] has as its target Muscarinic acetylcholine receptor. Briefly: In vitro binding affinity against Muscarinic receptor in rat cerebral cortex using [3H]- oxotremorine-M (OXO-M) using as a radioligand; Value ranges from 120-220. The format is tissue-based.
Data set [2] is described as follows: Ratio of compound in rat rhythmical slow wave activity assay vs efficacy causing 50% decrease in BP in rats. The format is functional.
In data set [3] the target is Muscarinic acetylcholine receptor (Rattus norvegicus) (UniProt P08482+P08483+P08485+P08911+P10980). Briefly: Selectivity is the ratio of inhibitory activities against muscarinic receptors, determined using radioligand [3H]OXO-M and 3[H}-QND. The format is protein assay.
The nature of data set [4]: pKa value was measured. The format is physicochemical.
Data set [5] has as its target Muscarinic acetylcholine receptor. In words: In vitro binding affinity against Muscarinic receptor in rat cerebral cortex using [3H]- quinuclidinyl benzilate (QNB)using as a radioligand; Value ranges from 4300-9500. The format is tissue-based.
Data set [6] relates to Rattus norvegicus. In words: Effective dose causing 50% decrease in mean blood pressure upon intravenous administration in rats. The format is functional.
In data set [7] the test system is Rattus norvegicus. In words: Dose required to induce a standard increase in rhythmical slow wave activity (RSA) in rats when administered intravenously. The format is functional.
Data set [8] in a line: Partition coefficient (logP). The format is physicochemical. To be noted: octanol/water.
Data set [9] has as its target Muscarinic acetylcholine receptor. In words: In vitro binding affinity against Muscarinic receptor in rat cerebral cortex using [3H]- oxotremorine-M (OXO-M) using as a radioligand; Value ranges from 46-110. The format is tissue-based.
Data set [10] has the same target. Briefly: In vitro binding affinity against Muscarinic receptor in rat cerebral cortex using [3H]- quinuclidinyl benzilate (QNB)using as a radioligand; Value ranges from 18000-23000. The format is tissue-based.
The target is the same in data set [11]. In words: In vitro binding affinity against Muscarinic receptor in rat cerebral cortex using [3H]- quinuclidinyl benzilate (QNB)using as a radioligand; Value ranges from 4700-6700. The format is tissue-based.
The target is the same in data set [12]. Briefly: In vitro binding affinity against Muscarinic receptor in rat cerebral cortex using [3H]- oxotremorine-M (OXO-M) using as a radioligand; Value ranges from 120-180. The format is tissue-based.
Data set [13] has the same target. Briefly: In vitro binding affinity against Muscarinic receptor in rat cerebral cortex using [3H]- oxotremorine-M (OXO-M) using as a radioligand; Value ranges from 240-290. The format is tissue-based.
Data set [14] shares this target. In words: In vitro binding affinity against Muscarinic receptor in rat cerebral cortex using [3H]- quinuclidinyl benzilate (QNB)using as a radioligand. The format is tissue-based.
The target is the same in data set [15]. In words: In vitro binding affinity against Muscarinic receptor in rat cerebral cortex using [3H]- oxotremorine-M (OXO-M) using as a radioligand; Value ranges from 65-260. The format is tissue-based.
The target is the same in data set [16]. In words: In vitro binding affinity against Muscarinic receptor in rat cerebral cortex using [3H]- quinuclidinyl benzilate (QNB)using as a radioligand; Value ranges from 9700-23000. The format is tissue-based.
Data set [17] has the same target. In words: In vitro binding affinity against Muscarinic receptor in rat cerebral cortex using [3H]- oxotremorine-M (OXO-M) using as a radioligand. The format is tissue-based.
The target is the same in data set [18]. Briefly: In vitro binding affinity against Muscarinic receptor in rat cerebral cortex using [3H]- quinuclidinyl benzilate (QNB)using as a radioligand; Value ranges from 11000-17000. The format is tissue-based.
Data set [19] has the same target. In words: In vitro binding affinity against Muscarinic receptor in rat cerebral cortex using [3H]- oxotremorine-M (OXO-M) using as a radioligand; Value ranges from 2300-3500. The format is tissue-based.
Data set [20] has the same target. Briefly: In vitro binding affinity against Muscarinic receptor in rat cerebral cortex using [3H]- quinuclidinyl benzilate (QNB)using as a radioligand; Value ranges from 1200-1800. The format is tissue-based.
For data set [21] the target is unchanged. In words: In vitro binding affinity against Muscarinic receptor in rat cerebral cortex using [3H]- oxotremorine-M (OXO-M) using as a radioligand; Value ranges from 23-35. The format is tissue-based.
Data set [22] has the same target. In words: In vitro binding affinity against Muscarinic receptor in rat cerebral cortex using [3H]- quinuclidinyl benzilate (QNB)using as a radioligand; Value ranges from 1500-7200. The format is tissue-based.
For data set [23] the target is unchanged. In words: In vitro binding affinity against Muscarinic receptor in rat cerebral cortex using [3H]- oxotremorine-M (OXO-M) using as a radioligand; Value ranges from 28-58. The format is tissue-based.
Data set [24] has the same target. In words: In vitro binding affinity against Muscarinic receptor in rat cerebral cortex using [3H]- oxotremorine-M (OXO-M) using as a radioligand; Value ranges from 990-1300. The format is tissue-based.
The target is the same in data set [25]. Briefly: In vitro binding affinity against Muscarinic receptor in rat cerebral cortex using [3H]- quinuclidinyl benzilate (QNB)using as a radioligand; Value ranges from 15000-15000. The format is tissue-based.
Data set [26] has the same target. In words: In vitro binding affinity against Muscarinic receptor in rat cerebral cortex using [3H]- quinuclidinyl benzilate (QNB)using as a radioligand; Value ranges from 9100-9600. The format is tissue-based.
The target is the same in data set [27]. Briefly: In vitro binding affinity against Muscarinic receptor in rat cerebral cortex using [3H]- oxotremorine-M (OXO-M) using as a radioligand; Value ranges from 840-1200. The format is tissue-based.
Data set [28] shares this target. Briefly: In vitro binding affinity against Muscarinic receptor in rat cerebral cortex using [3H]- oxotremorine-M (OXO-M) using as a radioligand; Value ranges from 330-620. The format is tissue-based.
For data set [29] the target is unchanged. Briefly: In vitro binding affinity against Muscarinic receptor in rat cerebral cortex using [3H]- quinuclidinyl benzilate (QNB)using as a radioligand; Value ranges from 8000-8500. The format is tissue-based.
Data set [30] has the same target. Briefly: In vitro binding affinity against Muscarinic receptor in rat cerebral cortex using [3H]- quinuclidinyl benzilate (QNB)using as a radioligand; Value ranges from 2100-2300. The format is tissue-based.

Regarding `CO/N=C(\C#N)C1=CCCN(C)C1`, the concentration for half-maximal inhibition (IC50) in [1] was found to be 150 nM; in [5], 4500 nM. Further, the Ratio is >6.3 in data set [2] and 30 in data set [3]. Further, the pKa in [4] was found to be 7.65. The ED50 with Rattus norvegicus [6] is > 1 mg/kg. In addition, the “ED Arec” value with Rattus norvegicus [7] came to 0.16 mg/kg. The same compound came in with a logP in data set [8] of 1.76.

Regarding `CO/N=C/C1=CCCNC1`, the Ratio in data set [2] came out at 3.5; in data set [3], 280. The results for the concentration for half-maximal inhibition (IC50) in data set [9] and in data set [10] were 71 nM and 20000 nM, respectively. Further, in data set [4], the pKa stood at 9.18. The compound further had an ED50 in the data set with Rattus norvegicus [6] of 0.067 mg/kg. Besides, in the data set with Rattus norvegicus [7], the “ED Arec” value was found to be 0.019 mg/kg. For the same compound, the log partition coefficient (logP) in data set [8] was 1.01.

Turning to `CO/N=C(\Cl)C1=CCCNC1`, the Ratio in [3] amounted to 37. For the same compound, the half-inhibitory concentration (IC50) worked out at 5600 nM in data set [11] and 150 nM in [12].

Consider `CO/N=C(\Cl)C1=CCCN(C)C1`, for which, in data set [3], the Ratio amounted to 11. In addition, the concentration for half-maximal inhibition (IC50) in [13] is given as 260 nM; in data set [14] it was 2800 nM.

Regarding `CO/N=C/C1=CCCN(C)C1` [MILAMELINE], the Ratio in data set [2] is 1; in data set [3], 130. Also, the pKa in data set [4] came out at 8.21. This compound also registered an ED50 in the data set on Rattus norvegicus [6] of 0.15 mg/kg. The results for the 50% inhibitory concentration (IC50) in data set [15] and in [16] were 110 nM and 14000 nM, respectively. Also, the “ED Arec” value in the data set on Rattus norvegicus [7] was 0.15 mg/kg. The compound also came in with a logP in data set [8] of 1.45.

As to `CO/N=C(\CF)C1=CCCNC1`, the IC50 is 420 nM in [17] and 17000 nM in data set [14]. For the same compound, the Ratio in data set [3] amounted to 40.

For `CON=C(C1=CCCN(C)C1)C(F)(F)F`, the figures for the IC50 in data set [18] and in data set [19] were 13000 nM and 2800 nM, respectively. In addition, the Ratio in data set [3] turned out to be 5.

Consider `CO/N=C(\C#N)C1=CCCNC1`, for which the Ratio in [2] was >10; in [3] it was 54. For the same compound, the pKa in [4] worked out at 8.6. The figures for the 50% inhibitory concentration (IC50) in data set [20] and in data set [21] were 1500 nM and 28 nM, respectively. The 50% effective dose (ED50) in the data set on Rattus norvegicus [6] was > 0.32 mg/kg. Moreover, in the data set on Rattus norvegicus [7], the “ED Arec” value was determined as 0.032 mg/kg. The log partition coefficient (logP) in data set [8] was determined as 1.41.

`CO/N=C(\F)C1=CCCN(C)C1`: the Ratio in data set [2] stood at 0.74; in data set [3] it was 100. The pKa in data set [4] stood at 7.39. This compound also yielded an ED50 in the data set on Rattus norvegicus [6] of 0.04 mg/kg. The IC50 in data set [22] amounted to 4000 nM; in data set [23], 39 nM. In the data set on Rattus norvegicus [7], the “ED Arec” value worked out at 0.054 mg/kg. The logP in data set [8] is 1.48.

`CO/N=C(/C1=CCCN(C)C1)C(F)F`: the half-maximal inhibitory concentration (IC50) in [24] is given as 1100 nM; in [25], 15000 nM. Besides, in [3], the Ratio stood at 14.

For `CO/N=C(\F)C1=CCCNC1`, the half-maximal inhibitory concentration (IC50) in data set [17] was 41 nM; in data set [14], 2900 nM. The Ratio in data set [3] is 70.

`CO/N=C(\C1=CCCN(C)C1)C(F)(F)F` yielded a 50% inhibitory concentration (IC50) in [17] of 11000 nM.

In the case of `CCN1CCC=C(/C(C#N)=N/OC)C1`, the IC50 in data set [26] was 9400 nM; in [27], 1000 nM. In data set [3], the Ratio amounted to 9.

For `CO/N=C(\CF)C1=CCCN(C)C1`, the IC50 in data set [28] was 450 nM; in data set [29], 8300 nM. Besides, the Ratio in data set [3] is 18.

In the case of `CO/N=C(\Cl)C1CN2CCC1CC2` (stereo not given), the Ratio in data set [3] was 16.

Take `CO/N=C(\C#N)C1CN2CCC1CC2` (stereo not given): the values for the Ratio in [2] and in data set [3] were >10.8 and 14, respectively.

Turning to `CO/N=C(\F)C1CN2CCC1CC2` (stereo not given), the IC50 in data set [30] is given as 2200 nM. Moreover, the Ratio in data set [3] is 65.
